Test systems include MOLT-4 leukemia; SK-MEL-28 melanoma; M14 melanoma; RXF 393 renal; IGROV1 ovarian; SR leukemia; CAKI-1 renal; MALME-3M melanoma; SF-268 CNS; MDA-MB-435.
Common to all, as to assay: inhibition of tumour cell growth, NCI panel, 48 h

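Interpolation was linear, between the two tested concentrations surrounding the appropriate level; five concentrations were tested over 48 hours in 96-well plates. GI50: concentration for 50% inhibition of growth. Definition used: TGI = concentration required for complete inhibition of growth.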

Consider `CCOC(=O)C[C@@H](C)[C@]1(C(=O)OC)CCCC1=O`, for which the TGI with MOLT-4 leukemia is greater than 100 µM; with SK-MEL-28 melanoma it was greater than 100 µM; in the assay with M14 melanoma, greater than 100 µM; in the assay with RXF 393 renal, greater than 100 µM; with IGROV1 ovarian, greater than 100 µM; in the assay on SR leukemia it was 65.6 µM. For the same compound, the TGI in the assay with CAKI-1 renal, with MALME-3M melanoma and in the assay on SF-268 CNS was greater than 100 µM each time.

Turning to `COCc1c(CO)cnc(C)c1OC1OC(CO)C(O)C(O)C1O` (stereo unspecified), the TGI in the assay with MOLT-4 leukemia, in the assay with SK-MEL-28 melanoma, in the assay on M14 melanoma, in the assay with RXF 393 renal, with IGROV1 ovarian and in the assay with SR leukemia was greater than 100 µM throughout. The TGI with CAKI-1 renal, with MALME-3M melanoma and in the assay with SF-268 CNS was greater than 100 µM throughout.

Regarding `COc1ccc(CCN2CCCN3C2=Nc2ccccc2S3(=O)=O)cc1`, the GI50 was 464 nM in the assay on MOLT-4 leukemia; 805 nM with SK-MEL-28 melanoma; 0.322 µM in the assay with M14 melanoma; 622 nM with RXF 393 renal; 1510 nM in the assay on IGROV1 ovarian; 193 nM with SR leukemia. Further, the GI50 in the assay on CAKI-1 renal was 730 nM; with SF-268 CNS, 2060 nM. In addition, the TGI in the assay with MOLT-4 leukemia, with SK-MEL-28 melanoma, in the assay with M14 melanoma, in the assay with RXF 393 renal, in the assay with IGROV1 ovarian and in the assay on SR leukemia was greater than 100 µM each time. Besides, the TGI with CAKI-1 renal and in the assay on SF-268 CNS was greater than 100 µM throughout.

As to `COc1cccc(NC(=O)C(C)(C)C)c1C=O`, the TGI in the assay on MOLT-4 leukemia, in the assay with SK-MEL-28 melanoma, with M14 melanoma, in the assay on IGROV1 ovarian, in the assay on SR leukemia and in the assay on CAKI-1 renal was greater than 100 µM each time. Further, the TGI in the assay on MALME-3M melanoma and in the assay on SF-268 CNS was greater than 100 µM throughout.

For `CCCCCCCCCCCCCCCCOCC(CN(C)CCN(C)C)OCCCCCCCCCCCCCCCC` (stereo unspecified), the TGI in the assay on MOLT-4 leukemia, in the assay on SK-MEL-28 melanoma, in the assay on M14 melanoma, in the assay on RXF 393 renal, in the assay with IGROV1 ovarian and in the assay with SR leukemia was greater than 100 µM each time. Besides, the TGI with CAKI-1 renal, in the assay with MALME-3M melanoma and in the assay on SF-268 CNS was greater than 100 µM in each case.

As for `CCOC(=O)C(Cc1c[nH]c2ccc([N+](=O)[O-])cc12)(NC(C)=O)C(=O)OCC`, the GI50 with MOLT-4 leukemia is 35200 nM; with SK-MEL-28 melanoma, 975000 nM; in the assay on M14 melanoma it was greater than 1000 µM; in the assay on RXF 393 renal, 66400 nM; in the assay on IGROV1 ovarian, 68700 nM; with MDA-MB-435, greater than 1 mM. Also, the GI50 in the assay on CAKI-1 renal is 34200 nM; in the assay on MALME-3M melanoma, 114 µM; in the assay with SF-268 CNS, 188000 nM. For the same compound, the TGI is greater than 1000 µM in the assay on MOLT-4 leukemia; greater than 1000 µM in the assay on SK-MEL-28 melanoma; greater than 1000 µM with M14 melanoma; 261 µM in the assay with RXF 393 renal; greater than 833 µM in the assay on IGROV1 ovarian; greater than 1 mM with MDA-MB-435. Besides, the TGI in the assay with CAKI-1 renal, in the assay with MALME-3M melanoma and in the assay on SF-268 CNS was greater than 1000 µM each time.

Turning to `Nc1nc(Cl)cc(NCCCCCNc2cc(Cl)nc(N)n2)n1`, the TGI in the assay on MOLT-4 leukemia, in the assay with SK-MEL-28 melanoma, in the assay with M14 melanoma, with RXF 393 renal, in the assay with IGROV1 ovarian and in the assay on SR leukemia was greater than 100 µM in each case. For the same compound, the TGI in the assay with CAKI-1 renal and with SF-268 CNS was greater than 100 µM throughout.

As to `CC(=O)NC(CCCCN(Cc1ccccc1)C(=O)NCCCl)C(=O)NCc1ccccc1` (stereo unspecified), the TGI in the assay on MOLT-4 leukemia, in the assay with SK-MEL-28 melanoma, in the assay with M14 melanoma, in the assay on IGROV1 ovarian, in the assay on SR leukemia and in the assay on CAKI-1 renal was greater than 100 µM throughout. In addition, the TGI in the assay with MALME-3M melanoma and in the assay on SF-268 CNS was greater than 100 µM in each case.

In the case of `Cc1ccc2c(c1)C(C)Cc1c(ncnc1-n1cnc3cc(C)ccc31)N2C` (stereo unspecified), the GI50 was 40.7 nM in the assay on MOLT-4 leukemia; 74.3 nM in the assay on SK-MEL-28 melanoma; 28.9 nM in the assay with RXF 393 renal; 63.3 nM with IGROV1 ovarian; 44.9 nM with SR leukemia; 40.7 nM with CAKI-1 renal. Further, the figures for the GI50 in the assay on MALME-3M melanoma and with SF-268 CNS were 11 µM and 45 nM, respectively. The TGI with MOLT-4 leukemia was determined as 13.8 µM; with SK-MEL-28 melanoma it was 15.8 µM; in the assay with RXF 393 renal it was 8.74 µM; in the assay on IGROV1 ovarian it was 15.7 µM; in the assay with SR leukemia it was 13.4 µM; in the assay with CAKI-1 renal, 12.4 µM. Also, the TGI with MALME-3M melanoma turned out to be 23.7 µM; in the assay with SF-268 CNS it was 12.3 µM.

Turning to `C=CCCCn1ccc2ccccc21`, the TGI in the assay with MOLT-4 leukemia, in the assay on SK-MEL-28 melanoma, in the assay on M14 melanoma, in the assay with RXF 393 renal, in the assay on IGROV1 ovarian and in the assay with SR leukemia was greater than 100 µM in each case. Besides, the TGI in the assay with MALME-3M melanoma and in the assay on SF-268 CNS was greater than 100 µM each time.

Take `O=C(Cc1nc2ccccc2s1)Nc1ccc(Cl)cc1`: the TGI in the assay with MOLT-4 leukemia, with SK-MEL-28 melanoma, in the assay on M14 melanoma, with RXF 393 renal, in the assay with IGROV1 ovarian and in the assay on SR leukemia was greater than 100 µM throughout. Besides, the TGI with CAKI-1 renal, in the assay on MALME-3M melanoma and in the assay with SF-268 CNS was greater than 100 µM throughout.

In the case of `O=C(O)C1=C(C(=O)Nc2ccccc2)C2C=CC1C2` (stereo unspecified), the TGI in the assay with MOLT-4 leukemia, in the assay on SK-MEL-28 melanoma, in the assay on M14 melanoma, in the assay with RXF 393 renal, with IGROV1 ovarian and in the assay on SR leukemia was greater than 100 µM throughout. Further, the TGI in the assay with MALME-3M melanoma and in the assay with SF-268 CNS was greater than 100 µM throughout.

Values taken from PubChem BioAssay (NCI).
